According to ChEMBL document CHEMBL1201862, “PubChem BioAssay data set” (2004):
Activity calls are given as the source filed them.

How the values were obtained:
[1] = IGROV1 ovarian cancer cell cytotoxicity, dose response, PAX8 inhibitor project, plate reader, dry powder samples (AID 743043); format: functional, cell-based; details: IGROV-1
[2] = non-specific cell cytotoxicity, dose response, cytotoxicity control for PAX8 inhibitor project, plate reader, dry powder samples (AID 743021); format: functional, cell-based
Paired box protein Pax-8 = Paired box protein Pax-8 (Homo sapiens, UniProt Q06710); assay: inhibitors of PAX8-driven TPO luciferase reporter, dose response, RMG-I cells, cherry-pick (AID 687027); format: functional, cell-based;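 note: luciferase reporter driven by Pax8 target thyroperoxidase promoter measured by SteadyGlo luminescence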
Chain of Paired box protein Pax-8 (Q06710 whole entry): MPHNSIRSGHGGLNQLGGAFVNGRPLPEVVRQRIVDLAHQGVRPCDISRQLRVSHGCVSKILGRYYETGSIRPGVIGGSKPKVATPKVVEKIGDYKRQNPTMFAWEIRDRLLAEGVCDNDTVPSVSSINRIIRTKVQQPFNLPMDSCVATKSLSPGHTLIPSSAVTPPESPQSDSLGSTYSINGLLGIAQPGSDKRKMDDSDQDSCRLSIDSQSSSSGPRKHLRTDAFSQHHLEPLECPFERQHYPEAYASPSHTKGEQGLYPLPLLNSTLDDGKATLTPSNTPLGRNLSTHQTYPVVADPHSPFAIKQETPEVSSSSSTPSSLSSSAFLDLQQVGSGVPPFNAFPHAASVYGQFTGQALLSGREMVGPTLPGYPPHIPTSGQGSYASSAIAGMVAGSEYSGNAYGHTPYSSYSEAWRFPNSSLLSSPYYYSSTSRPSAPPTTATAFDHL

[3] = NIH:OVCAR-3 ovarian cancer cell cytotoxicity, dose response, PAX8 inhibitor project, plate reader, dry powder samples (AID 743044); format: functional, cell-based
[4] = biological target: Peroxisome proliferator-activated receptor gamma/Nuclear receptor coactivator 2 (Homo sapiens, UniProt P37231); assay: (§1) TR-FRET dose response biochemical High Throughput Screening assay for agonists of the steroid receptor coactivator 2 (SRC-2) recruitment by the peroxisome proliferator-activated receptor gamma (PPAR gamma): non-selective agonists. [Related pubchem assays: 1297, 1032 ]; format: functional
Chain of Peroxisome proliferator-activated receptor gamma/Nuclear receptor coactivator 2 (P37231 whole entry): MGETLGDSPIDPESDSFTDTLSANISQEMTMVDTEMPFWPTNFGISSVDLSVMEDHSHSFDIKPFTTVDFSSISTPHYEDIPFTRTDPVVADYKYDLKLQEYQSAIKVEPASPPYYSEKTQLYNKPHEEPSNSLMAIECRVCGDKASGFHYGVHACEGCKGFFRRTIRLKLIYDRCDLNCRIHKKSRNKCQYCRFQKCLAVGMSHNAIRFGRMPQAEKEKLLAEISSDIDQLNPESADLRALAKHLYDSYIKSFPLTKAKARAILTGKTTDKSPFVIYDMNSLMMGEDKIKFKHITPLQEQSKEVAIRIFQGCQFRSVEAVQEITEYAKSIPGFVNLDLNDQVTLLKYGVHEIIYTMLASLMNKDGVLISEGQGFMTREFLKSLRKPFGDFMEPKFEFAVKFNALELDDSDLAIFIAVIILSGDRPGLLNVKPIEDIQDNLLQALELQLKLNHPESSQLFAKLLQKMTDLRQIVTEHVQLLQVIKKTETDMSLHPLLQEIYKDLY
Chain of Peroxisome proliferator-activated receptor gamma/Nuclear receptor coactivator 2 (Q15596 whole entry, further chain): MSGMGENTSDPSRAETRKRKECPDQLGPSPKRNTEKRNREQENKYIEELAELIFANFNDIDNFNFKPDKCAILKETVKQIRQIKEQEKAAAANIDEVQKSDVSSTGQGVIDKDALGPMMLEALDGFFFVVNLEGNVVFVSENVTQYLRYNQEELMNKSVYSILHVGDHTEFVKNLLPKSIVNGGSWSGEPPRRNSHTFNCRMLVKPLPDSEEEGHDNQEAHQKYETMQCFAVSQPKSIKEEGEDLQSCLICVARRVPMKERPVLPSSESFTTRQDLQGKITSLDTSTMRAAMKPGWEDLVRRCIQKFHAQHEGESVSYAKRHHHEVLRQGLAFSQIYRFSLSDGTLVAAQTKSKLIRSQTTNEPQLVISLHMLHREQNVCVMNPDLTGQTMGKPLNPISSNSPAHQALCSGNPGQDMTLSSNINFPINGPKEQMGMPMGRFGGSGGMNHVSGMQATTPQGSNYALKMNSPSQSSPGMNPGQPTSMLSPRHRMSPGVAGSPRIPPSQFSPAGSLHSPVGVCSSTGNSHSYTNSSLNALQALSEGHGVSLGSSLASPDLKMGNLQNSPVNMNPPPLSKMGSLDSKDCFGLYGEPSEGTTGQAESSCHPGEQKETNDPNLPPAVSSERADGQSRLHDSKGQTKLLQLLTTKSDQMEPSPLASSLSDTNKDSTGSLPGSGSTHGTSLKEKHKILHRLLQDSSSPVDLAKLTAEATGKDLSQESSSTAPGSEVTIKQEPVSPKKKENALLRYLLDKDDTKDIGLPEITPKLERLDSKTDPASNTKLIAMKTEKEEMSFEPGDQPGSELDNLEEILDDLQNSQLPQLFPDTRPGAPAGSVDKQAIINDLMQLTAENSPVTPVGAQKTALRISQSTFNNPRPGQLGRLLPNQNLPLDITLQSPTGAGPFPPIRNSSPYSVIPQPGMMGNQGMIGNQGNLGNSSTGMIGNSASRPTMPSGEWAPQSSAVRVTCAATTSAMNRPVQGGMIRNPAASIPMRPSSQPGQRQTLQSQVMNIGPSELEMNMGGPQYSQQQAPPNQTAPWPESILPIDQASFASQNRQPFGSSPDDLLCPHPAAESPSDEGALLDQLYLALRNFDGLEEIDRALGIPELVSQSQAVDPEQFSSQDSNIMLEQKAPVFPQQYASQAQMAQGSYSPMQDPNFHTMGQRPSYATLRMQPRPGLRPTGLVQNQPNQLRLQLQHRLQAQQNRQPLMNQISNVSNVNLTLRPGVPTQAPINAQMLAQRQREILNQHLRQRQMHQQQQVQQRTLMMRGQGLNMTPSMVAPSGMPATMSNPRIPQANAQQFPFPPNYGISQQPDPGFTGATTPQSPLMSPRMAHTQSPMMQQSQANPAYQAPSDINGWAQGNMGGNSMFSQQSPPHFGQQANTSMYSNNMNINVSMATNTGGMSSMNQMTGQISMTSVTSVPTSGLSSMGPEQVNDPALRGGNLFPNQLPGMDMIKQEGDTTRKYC

Protein skinhead-1 = biological target: T1, Protein skinhead-1 (Caenorhabditis elegans, UniProt P34707); format: functional
T1 sequence (P34707 whole entry): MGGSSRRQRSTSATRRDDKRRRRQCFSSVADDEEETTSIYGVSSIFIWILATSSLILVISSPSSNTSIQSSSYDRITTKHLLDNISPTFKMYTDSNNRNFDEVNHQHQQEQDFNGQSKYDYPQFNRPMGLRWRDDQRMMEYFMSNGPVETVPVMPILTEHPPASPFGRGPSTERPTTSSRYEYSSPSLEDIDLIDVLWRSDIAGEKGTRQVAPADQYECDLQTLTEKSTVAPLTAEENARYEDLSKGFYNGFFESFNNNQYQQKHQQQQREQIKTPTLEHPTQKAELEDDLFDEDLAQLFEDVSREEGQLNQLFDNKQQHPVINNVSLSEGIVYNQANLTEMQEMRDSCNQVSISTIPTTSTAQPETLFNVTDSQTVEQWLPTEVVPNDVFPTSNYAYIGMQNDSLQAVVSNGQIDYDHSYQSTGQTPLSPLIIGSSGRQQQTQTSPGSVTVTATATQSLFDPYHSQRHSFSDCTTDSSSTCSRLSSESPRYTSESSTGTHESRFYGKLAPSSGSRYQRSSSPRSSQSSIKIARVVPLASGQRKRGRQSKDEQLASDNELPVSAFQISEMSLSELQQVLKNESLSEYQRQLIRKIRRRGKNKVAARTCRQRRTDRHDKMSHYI

[5] = biological target: Peroxisome proliferator-activated receptor gamma/Nuclear receptor coactivator 3 (Homo sapiens, UniProt P37231); assay: as §1, with “3 (SRC-3)” for “2 (SRC-2)”, “1301 (Confirmation screen.), 1048 (Primary screen.)]” for “1297, 1032 ]”; format: functional
[6] = ADAM10 inhibitors, peptide cleavage, dose response, biochemical, QFRET (AID 743254);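 note: ADAM10 enzyme with the DM2 quenched FRET peptide as substrate; EDANS fluorescence gain as the protease cuts the substrate; inhibitor potency against ADAM10 proteolytic activity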
[7] = biological target: Peroxisome proliferator-activated receptor gamma/Nuclear receptor coactivator 1 (Homo sapiens, UniProt P37231); assay: as §1, with “1 (SRC-1)” for “2 (SRC-2)”, “assays (depositor defined):AID1300, AID1808, AID504735, AID631]” for “assays: 1297, 1032 ]”; format: protein assay
Chain of Peroxisome proliferator-activated receptor gamma/Nuclear receptor coactivator 1 (P37231 whole entry, the tested form may be a part): as the sequence (P37231 whole entry) above
Chain of Peroxisome proliferator-activated receptor gamma/Nuclear receptor coactivator 1 (Q15788 whole entry, further chain, the tested form may be a part): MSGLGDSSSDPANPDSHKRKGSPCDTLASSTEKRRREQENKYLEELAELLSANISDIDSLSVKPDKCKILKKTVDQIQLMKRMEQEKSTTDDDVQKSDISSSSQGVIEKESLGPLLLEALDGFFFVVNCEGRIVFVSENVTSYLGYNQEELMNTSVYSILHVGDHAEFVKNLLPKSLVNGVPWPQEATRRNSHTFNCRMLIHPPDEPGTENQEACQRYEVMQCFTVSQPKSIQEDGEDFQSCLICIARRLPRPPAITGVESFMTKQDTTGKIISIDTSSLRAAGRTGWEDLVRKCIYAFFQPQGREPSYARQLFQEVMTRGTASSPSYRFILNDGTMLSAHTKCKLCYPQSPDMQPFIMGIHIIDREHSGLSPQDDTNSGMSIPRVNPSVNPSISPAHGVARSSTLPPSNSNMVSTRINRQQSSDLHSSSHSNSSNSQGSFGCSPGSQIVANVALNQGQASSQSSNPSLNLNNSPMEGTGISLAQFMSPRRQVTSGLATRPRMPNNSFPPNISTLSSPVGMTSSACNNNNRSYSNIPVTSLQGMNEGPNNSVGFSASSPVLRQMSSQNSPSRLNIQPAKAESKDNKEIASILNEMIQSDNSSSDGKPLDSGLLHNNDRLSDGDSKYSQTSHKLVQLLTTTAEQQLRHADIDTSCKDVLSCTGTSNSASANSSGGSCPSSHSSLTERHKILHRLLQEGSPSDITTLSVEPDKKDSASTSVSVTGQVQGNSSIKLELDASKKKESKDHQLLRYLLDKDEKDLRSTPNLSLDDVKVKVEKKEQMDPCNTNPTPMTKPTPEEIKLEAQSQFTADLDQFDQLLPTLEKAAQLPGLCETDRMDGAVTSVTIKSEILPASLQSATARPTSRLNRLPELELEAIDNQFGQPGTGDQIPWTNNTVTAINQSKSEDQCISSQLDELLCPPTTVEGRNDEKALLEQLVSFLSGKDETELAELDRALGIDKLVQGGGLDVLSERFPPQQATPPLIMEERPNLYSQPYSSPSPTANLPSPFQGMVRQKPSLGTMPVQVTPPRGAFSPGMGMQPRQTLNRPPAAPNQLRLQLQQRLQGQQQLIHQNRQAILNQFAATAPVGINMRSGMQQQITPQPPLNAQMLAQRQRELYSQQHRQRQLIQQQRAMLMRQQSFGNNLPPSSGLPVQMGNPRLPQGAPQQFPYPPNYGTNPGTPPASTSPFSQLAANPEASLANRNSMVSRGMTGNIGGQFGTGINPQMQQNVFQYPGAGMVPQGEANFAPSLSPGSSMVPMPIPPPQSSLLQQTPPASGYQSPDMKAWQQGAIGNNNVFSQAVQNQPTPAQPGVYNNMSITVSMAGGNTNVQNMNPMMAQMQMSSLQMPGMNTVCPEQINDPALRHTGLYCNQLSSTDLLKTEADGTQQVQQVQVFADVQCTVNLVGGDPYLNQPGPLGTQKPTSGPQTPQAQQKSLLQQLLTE

[8] = biological target: Disintegrin and metalloproteinase domain-containing protein 17 (Homo sapiens, UniProt P78536); assay: ADAM17 protease inhibitors, dose response, counter-screen for ADAM10 exosite inhibitor project, biochemical, quenched FRET substrate (AID 743253)
[9] = P. falciparum 3D7-ScDHODH growth inhibitors, dose response, SYBR Green, dry powder samples (AID 1159570); format: functional, cell-based;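 note: parasite growth measured after 72 hours of compound exposure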
[10] = HepG2 cell cytotoxicity, dose response, cytotoxicity control, plate reader, dry powder samples (AID 1159569); format: functional, cell-based;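 note: inhibitor potency with signal falling toward the positive control level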
[11] = P. falciparum ATP4 D1247Y mutant growth inhibitors, dose response, NITD609-resistant line, SYBR Green, dry powder (AID 1159571); format: functional, cell-based;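 note: parasites synchronized at ring stage by sorbitol before testing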
[12] = P. falciparum Dd2 growth inhibitors, dose response, SYBR Green, cherry-picked samples (AID 1159567); format: functional, cell-based
[13] = P. falciparum Dd2 growth inhibitors, dose response, SYBR Green, dry powder samples (AID 1159566); format: functional, cell-based;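 note: potency for growth inhibition with lower SYBR green DNA signal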
[14] = PAX5 activity inhibitors, dose response, selectivity assay for PAX8 inhibitor project, cell-based, plate reader, dry powder samples (AID 743047); format: functional;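 note: HEK293 cells carrying a Pax5 driven CD19 promoter luciferase reporter; potency of inhibitors that lower reporter luminescence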
[15] = cytotoxicity dependent on PAX8, dose response, cell-based, plate reader, dry powder (AID 743049); format: functional
[16] = PAX2 cell-based inhibition, dose response, selectivity assay for PAX8 inhibitor project, plate reader, dry powder samples (AID 743048); format: functional;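 note: HEK293 cells carrying a WT1 promoter luciferase reporter driven by expressed Pax2; potency is for inhibition of Pax2 driven reporter signal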
[17] = cytotoxicity in OV-90 ovarian cancer cells, dose response, PAX8 inhibitor project, cell-based, plate reader, dry powder, SA8 (AID 743149); format: functional
[18] = HepG2 cell cytotoxicity, dose response, cytotoxicity control, cherry-picked samples (AID 1159577); format: functional, cell-based
[19] = T. cruzi growth inhibition in host cells, dose response, cell-based, plate reader, dry powder, set 2 (AID 652275); format: functional
[20] = NIH/3T3 fibroblast cytotoxicity, dose response, cytotoxicity control, cell-based, plate reader, dry powder, set 2 (AID 652280); format: functional; details: NIH3T3
[21] = HEK293 cell cytotoxicity, dose response, cytotoxicity control, cherry-picks, set 5 (AID 1053117); format: functional, cell-based
[22] = inhibitors of fibronectin matrix deposition, dose response, AH1F cells, Alexa488-FN fluorescence, cherry-picks (AID 1035475); format: functional, cell-based
[23] = HepG2 cell cytotoxicity, dose response, cytotoxicity control, cherry-picks, set 5 (AID 1053118); format: functional, cell-based
[24] = A549 cell cytotoxicity, dose response, cytotoxicity control, cherry-picks, 26 µM top dose (AID 1053119); format: functional, cell-based
[25] = P. falciparum Dd2 growth inhibitors, dose response, SYBR Green, dry powder samples, set 9 (AID 1159568); format: functional, cell-based
Protein Tat = Protein Tat (Human immunodeficiency virus type 1 group M subtype B (isolate HXB2)(HIV-1), UniProt P04608); format: functional;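 note: tat binding to TAR RNA read out by fluorescence polarization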
Chain of Protein Tat (P04608 whole entry): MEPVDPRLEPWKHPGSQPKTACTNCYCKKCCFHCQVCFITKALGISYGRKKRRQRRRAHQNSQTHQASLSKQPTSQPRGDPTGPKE

[26] = cytotoxicity in OVCAR8 ovarian cancer cells, dose response, PAX8 project, cell-based, plate reader, dry powder samples (AID 743197); format: functional; details: OVCAR-8
[27] = IOSE-T80 ovarian epithelial cell cytotoxicity, dose response, cytotoxicity control for PAX8 inhibitor project, plate reader, dry powder samples (AID 743045); format: functional, cell-based
Vero = assay: Vero cell toxicity, dose response, cytotoxicity control, plate reader, cherry-pick samples (AID 687020); format: functional, cell-based; details: Chlorocebus sabaeus
[28] = BHK-21 cell cytotoxicity, cytotoxicity control for flavivirus guanylyltransferase probe project, secondary screen (AID 624078); format: functional

For C[C@@H]1CCCCO[C@H](CN(C)Cc2ccc(Cl)c(Cl)c2)[C@@H](C)CN([C@@H](C)CO)C(=O)c2cc(NS(=O)(=O)c3ccccc3)ccc2O1, the AC50 [1] was 44.6 µM (active), the AC50 [2] was 2.38 µM (active) and the AC50 (Paired box protein Pax-8) was 5 µM (active). The AC50 [3] was 21.2 µM (active).

With COc1ccc2nc(SCC(=O)Nc3ccc(S(=O)(=O)N4CCCC4)cc3)c(C#N)cc2c1 the EC50 [4] was 7.11 µM (active), the IC50 (Protein skinhead-1) was > 100 µM (inactive) and the EC50 [5] was > 26.5 µM (not active). The IC50 [6] was > 69.5 µM (inactive), the EC50 [7] was 7.32 µM (active) and the IC50 [8] was > 69.5 µM (inactive).

For CCCN(C)C[C@@H]1Oc2cc(C#Cc3cccnc3)ccc2S(=O)(=O)N([C@@H](C)CO)C[C@H]1C, the AC50 [9] was 3.59 µM (active), the AC50 [10] was 79.5 µM (active) and the AC50 [11] was 2.99 µM (active). The AC50 [12] was 2.13 µM (active) and the AC50 [13] was 2.62 µM (active).

With C[C@H]1CN([C@@H](C)CO)C(=O)Cc2cc(NC(=O)NC3CCCCC3)ccc2O[C@@H]1CN(C)Cc1ccc(-c2ccccc2)cc1 the AC50 [14] was 20.8 µM (active), the AC50 [15] was > 70 µM (inactive) and the AC50 [16] was 19.3 µM (active). The AC50 (Paired box protein Pax-8) was 14.5 µM (active) and the AC50 [17] was > 70 µM (inactive).

For CCS(=O)(=O)N1CC2(C1)[C@@H](c1ccccc1)[C@H](CO)N2Cc1ccc(F)cc1, the AC50 [18] was > 39 µM (inactive) and the AC50 [12] was 6 µM (active).

For O=C(C1CC1)N1CCCCN2[C@@H](CO)[C@H](c3ccc(-c4cccc(F)c4)cc3)[C@@H]2C1, the AC50 [19] was 0.312 µM (active) and the AC50 [20] was 26.7 µM (active).

In the case of CO[C@@H]1CN(C)C(=O)c2ccc(NC(=O)Nc3ccc(Cl)c(Cl)c3)cc2OC[C@@H](C)NC[C@@H]1C, the AC50 [21] is reported as 20.4 µM (active), the AC50 [22] is reported as 36.8 µM (active) and the AC50 [23] is reported as 24.2 µM (active). The AC50 [24] was 13.1 µM (active).

With C[C@@H]1CCCCO[C@H](CN(C)S(=O)(=O)c2ccccc2)[C@@H](C)CN([C@@H](C)CO)C(=O)c2cc(NC(=O)Nc3ccc4c(c3)OCO4)ccc2O1 the AC50 [25] was 1.64 µM (active).

For COC(=O)C(C)Sc1nnc(Cc2cc(O)nc(O)n2)n1-c1cc(C)ccc1C (stereo unspecified), the IC50 (Protein Tat) was > 100 µM (active).

With C[C@@H]1CCCCO[C@H](CN(C)Cc2ccc(C(F)(F)F)cc2)[C@H](C)CN([C@@H](C)CO)C(=O)c2cc(NC(=O)c3ccccc3)ccc2O1 the AC50 [26] was 17.8 µM (active), the AC50 [27] was 42.4 µM (active) and the AC50 (Paired box protein Pax-8) was 19.1 µM (active). For the same compound, the AC50 (Vero) was 28.7 µM (active) and the AC50 [3] was 33.2 µM (active).

In the case of Cn1c(=O)c2[nH]c(-c3ccc(Cl)cc3)c(O)c2n(C)c1=O, the CC50 [28] is reported as > 100 µM (active).
